Measurements taken from PMC7180948, “New Insights into 4-Anilinoquinazolines as Inhibitors of Cardiac Troponin I–Interacting Kinase (TNNi3K)” (Molecules, 2020).

Columns and labels:
Assay in all cases: biochemical
Parameters in all cases: KINOMEscan competition binding panel (Eurofins DiscoverX), single concentration, % inhibition
Conditions in all cases: read-out: 7 at 1 µM % inhibition
PRKX = PRKX (Homo sapiens, UniProt P51817)
Description: (§1) KinomeScan® Assay on 7 and 15 was performed as previously described by EuroFins DiscoverX [24]. GSK114 (7) and 15 were submitted for a KINOMEscan® assay to explore the selectivity profile across >400 human kinases at a compound concentration of 1 µM. […] GSK114 (7) is a narrow-spectrum TNNi3K inhibitor but has some potent off-targets including GAK which has been previously reported for this chemotype. […] If utilized together this set of compounds could be useful to investigate TNNi3K biology.

PKMYT1 = PKMYT1 (Homo sapiens, UniProt Q99640)
Sequence of PKMYT1 (Q99640 whole entry): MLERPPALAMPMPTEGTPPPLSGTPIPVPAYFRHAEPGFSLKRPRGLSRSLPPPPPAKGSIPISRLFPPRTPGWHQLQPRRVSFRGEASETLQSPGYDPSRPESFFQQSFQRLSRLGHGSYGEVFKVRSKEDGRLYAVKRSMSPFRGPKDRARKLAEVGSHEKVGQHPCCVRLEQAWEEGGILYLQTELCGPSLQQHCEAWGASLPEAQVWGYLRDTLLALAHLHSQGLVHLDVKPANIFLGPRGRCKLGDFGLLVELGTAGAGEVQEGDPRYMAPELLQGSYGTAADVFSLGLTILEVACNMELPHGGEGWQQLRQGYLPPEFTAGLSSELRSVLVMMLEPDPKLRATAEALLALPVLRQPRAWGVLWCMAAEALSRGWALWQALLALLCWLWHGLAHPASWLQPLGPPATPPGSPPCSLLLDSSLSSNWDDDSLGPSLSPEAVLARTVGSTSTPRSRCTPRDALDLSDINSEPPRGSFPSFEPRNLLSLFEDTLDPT
Description: as §1

CASK = CASK (Homo sapiens, UniProt O14936)
Description: as §1

PDPK1 = PDPK1 (Homo sapiens, UniProt O15530)
Description: as §1

CIT = CIT (Homo sapiens, UniProt O14578)
Description: as §1

MAP3K15 = MAP3K15 (Homo sapiens, UniProt Q6ZN16)
Description: as §1

LATS2 = LATS2 (Homo sapiens, UniProt Q9NRM7)
Description: as §1

TGFBR1 = TGFBR1 (Homo sapiens, UniProt P36897)
Sequence of TGFBR1 (P36897 whole entry): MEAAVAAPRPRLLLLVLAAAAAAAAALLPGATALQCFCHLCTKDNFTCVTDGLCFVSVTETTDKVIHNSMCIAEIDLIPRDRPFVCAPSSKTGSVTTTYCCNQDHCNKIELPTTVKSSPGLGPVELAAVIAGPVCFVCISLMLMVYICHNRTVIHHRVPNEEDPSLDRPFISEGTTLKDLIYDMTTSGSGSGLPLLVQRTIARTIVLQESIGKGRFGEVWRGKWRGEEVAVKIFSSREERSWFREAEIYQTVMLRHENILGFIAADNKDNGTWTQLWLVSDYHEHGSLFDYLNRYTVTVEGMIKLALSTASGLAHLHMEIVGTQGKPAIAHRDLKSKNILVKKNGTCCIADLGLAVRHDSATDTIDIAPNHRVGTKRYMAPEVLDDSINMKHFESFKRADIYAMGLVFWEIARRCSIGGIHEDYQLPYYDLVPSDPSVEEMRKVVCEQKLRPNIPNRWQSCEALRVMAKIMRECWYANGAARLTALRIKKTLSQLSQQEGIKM
Description: as §1

MAP3K4 = MAP3K4 (Homo sapiens, UniProt Q9Y6R4)
Description: as §1

RIOK1 = RIOK1 (Homo sapiens, UniProt Q9BRS2)
Description: as §1

KIT(A829P) = KIT(A829P) (Homo sapiens, UniProt P10721, A829P)
Description: as §1

PFTAIRE2 = molecular target: T1, PFTAIRE2 (Homo sapiens, UniProt Q96Q40)
T1 construct: gene CDK15
T1 sequence (Q96Q40 whole entry): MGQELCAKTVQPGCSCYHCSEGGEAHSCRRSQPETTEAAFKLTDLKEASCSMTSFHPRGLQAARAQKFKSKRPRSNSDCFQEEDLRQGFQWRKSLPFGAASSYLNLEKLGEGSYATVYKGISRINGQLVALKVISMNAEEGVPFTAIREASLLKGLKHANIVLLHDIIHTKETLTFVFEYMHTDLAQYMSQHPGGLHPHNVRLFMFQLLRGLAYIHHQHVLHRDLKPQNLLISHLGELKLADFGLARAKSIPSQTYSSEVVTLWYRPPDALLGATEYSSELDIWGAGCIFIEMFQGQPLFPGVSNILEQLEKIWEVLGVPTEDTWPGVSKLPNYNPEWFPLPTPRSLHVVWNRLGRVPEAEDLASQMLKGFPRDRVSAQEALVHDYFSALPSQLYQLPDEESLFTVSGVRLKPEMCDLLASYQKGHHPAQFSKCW
Description: as §1

[1] = molecular target: T2, JAK1(JH2domain-pseudokinase) (Homo sapiens, UniProt P23458)
T2 construct: JH2domain-pseudokinase
T2 sequence (P23458 whole entry): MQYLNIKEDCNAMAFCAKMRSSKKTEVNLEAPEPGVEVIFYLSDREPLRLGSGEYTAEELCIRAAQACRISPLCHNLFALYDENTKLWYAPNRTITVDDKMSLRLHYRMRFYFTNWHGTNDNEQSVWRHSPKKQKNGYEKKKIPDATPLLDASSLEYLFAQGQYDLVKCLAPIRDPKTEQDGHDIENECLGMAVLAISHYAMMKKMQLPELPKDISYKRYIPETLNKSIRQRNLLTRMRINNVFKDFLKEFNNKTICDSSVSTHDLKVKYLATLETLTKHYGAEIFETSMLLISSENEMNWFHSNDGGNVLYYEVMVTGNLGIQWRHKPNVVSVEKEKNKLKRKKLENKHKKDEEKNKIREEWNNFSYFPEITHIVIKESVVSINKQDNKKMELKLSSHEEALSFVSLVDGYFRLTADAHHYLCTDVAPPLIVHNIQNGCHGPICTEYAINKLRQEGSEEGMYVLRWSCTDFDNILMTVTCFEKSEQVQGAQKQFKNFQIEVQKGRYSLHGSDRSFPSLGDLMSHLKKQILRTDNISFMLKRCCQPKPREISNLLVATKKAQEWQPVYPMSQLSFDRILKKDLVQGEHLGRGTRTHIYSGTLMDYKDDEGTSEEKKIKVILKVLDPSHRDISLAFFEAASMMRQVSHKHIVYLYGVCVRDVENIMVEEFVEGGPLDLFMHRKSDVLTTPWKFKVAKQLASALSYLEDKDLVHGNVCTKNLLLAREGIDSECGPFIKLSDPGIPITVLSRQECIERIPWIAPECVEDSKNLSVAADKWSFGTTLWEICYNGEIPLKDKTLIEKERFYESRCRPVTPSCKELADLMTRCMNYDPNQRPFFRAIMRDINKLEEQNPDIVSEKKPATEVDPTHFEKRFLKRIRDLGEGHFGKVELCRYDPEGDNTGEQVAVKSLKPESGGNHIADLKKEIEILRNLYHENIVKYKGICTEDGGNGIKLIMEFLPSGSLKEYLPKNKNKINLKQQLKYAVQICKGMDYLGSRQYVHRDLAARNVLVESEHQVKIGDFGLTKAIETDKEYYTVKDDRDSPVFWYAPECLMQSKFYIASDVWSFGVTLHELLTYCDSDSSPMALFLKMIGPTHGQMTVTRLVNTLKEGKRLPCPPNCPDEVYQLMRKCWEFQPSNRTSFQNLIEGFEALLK
Description: as §1

LCK = LCK (Homo sapiens, UniProt P06239)
Description: as §1

[2] = molecular target: T3, RPS6KA4(Kin.Dom.2-C-terminal) (Homo sapiens, UniProt O75676)
T3 construct: Kin.Dom.2-C-terminal
T3 sequence (O75676 whole entry): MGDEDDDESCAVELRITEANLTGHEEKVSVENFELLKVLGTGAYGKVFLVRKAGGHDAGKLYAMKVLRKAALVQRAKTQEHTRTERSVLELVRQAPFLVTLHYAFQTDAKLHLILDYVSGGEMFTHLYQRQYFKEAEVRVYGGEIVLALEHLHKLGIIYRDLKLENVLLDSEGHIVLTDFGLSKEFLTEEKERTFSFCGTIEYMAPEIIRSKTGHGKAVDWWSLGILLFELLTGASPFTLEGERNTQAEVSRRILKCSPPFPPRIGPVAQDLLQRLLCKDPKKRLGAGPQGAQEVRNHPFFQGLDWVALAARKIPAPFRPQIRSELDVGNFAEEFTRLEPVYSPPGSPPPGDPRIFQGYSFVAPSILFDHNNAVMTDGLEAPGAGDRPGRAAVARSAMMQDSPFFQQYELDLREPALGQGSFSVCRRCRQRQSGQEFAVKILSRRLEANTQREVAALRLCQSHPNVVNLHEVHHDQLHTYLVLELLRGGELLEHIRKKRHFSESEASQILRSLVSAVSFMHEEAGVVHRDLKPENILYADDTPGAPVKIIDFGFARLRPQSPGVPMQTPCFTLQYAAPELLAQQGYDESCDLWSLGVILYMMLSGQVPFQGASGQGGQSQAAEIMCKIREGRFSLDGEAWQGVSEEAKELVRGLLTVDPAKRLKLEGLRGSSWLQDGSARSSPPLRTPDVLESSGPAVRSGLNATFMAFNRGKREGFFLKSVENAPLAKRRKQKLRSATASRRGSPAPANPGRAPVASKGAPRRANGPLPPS
Description: as §1

MAK = MAK (Homo sapiens, UniProt P20794)
Sequence of MAK (P20794 whole entry): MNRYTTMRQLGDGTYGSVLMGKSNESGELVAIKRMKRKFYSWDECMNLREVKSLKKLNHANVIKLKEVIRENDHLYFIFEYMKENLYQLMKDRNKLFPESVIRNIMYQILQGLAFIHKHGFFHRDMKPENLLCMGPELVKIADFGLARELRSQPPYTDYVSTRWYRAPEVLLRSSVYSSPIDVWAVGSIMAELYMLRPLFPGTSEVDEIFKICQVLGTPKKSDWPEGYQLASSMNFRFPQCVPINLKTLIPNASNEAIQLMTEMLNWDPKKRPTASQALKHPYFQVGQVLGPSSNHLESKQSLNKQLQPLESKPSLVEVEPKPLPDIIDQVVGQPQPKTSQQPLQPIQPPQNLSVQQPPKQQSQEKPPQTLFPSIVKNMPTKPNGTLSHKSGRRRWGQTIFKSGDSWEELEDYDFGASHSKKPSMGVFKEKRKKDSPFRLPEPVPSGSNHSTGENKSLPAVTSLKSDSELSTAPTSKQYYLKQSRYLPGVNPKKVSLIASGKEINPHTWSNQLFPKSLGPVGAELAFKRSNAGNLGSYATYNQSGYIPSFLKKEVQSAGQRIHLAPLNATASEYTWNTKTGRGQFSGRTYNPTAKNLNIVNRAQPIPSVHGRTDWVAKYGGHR
Description: as §1

NEK3 = NEK3 (Homo sapiens, UniProt P51956)
Sequence of NEK3 (P51956 whole entry): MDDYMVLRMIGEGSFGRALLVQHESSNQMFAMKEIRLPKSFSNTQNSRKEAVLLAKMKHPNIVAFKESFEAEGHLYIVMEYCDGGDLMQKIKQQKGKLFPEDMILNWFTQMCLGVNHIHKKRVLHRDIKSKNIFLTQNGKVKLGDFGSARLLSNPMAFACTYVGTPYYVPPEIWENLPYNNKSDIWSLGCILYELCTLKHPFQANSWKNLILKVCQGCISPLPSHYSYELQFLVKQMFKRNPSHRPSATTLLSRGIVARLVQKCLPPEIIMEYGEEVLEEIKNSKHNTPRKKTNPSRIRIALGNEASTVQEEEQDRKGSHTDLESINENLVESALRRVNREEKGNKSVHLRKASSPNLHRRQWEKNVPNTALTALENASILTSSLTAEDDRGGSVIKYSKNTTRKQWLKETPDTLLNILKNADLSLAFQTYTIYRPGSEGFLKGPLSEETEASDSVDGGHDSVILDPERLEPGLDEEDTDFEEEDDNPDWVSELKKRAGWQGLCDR
Description: as §1

ADCK3 = molecular target: T4, ADCK3 (Homo sapiens, UniProt Q8NI60)
T4 construct: gene COQ8A
Description: as §1

ACVR2A = ACVR2A (Homo sapiens, UniProt P27037)
Description: as §1

DYRK1A = DYRK1A (Homo sapiens, UniProt Q13627)
Description: as §1

VEGFR2 = molecular target: T5, VEGFR2 (Homo sapiens, UniProt P35968)
T5 construct: gene KDR
Description: as §1

EPHA6 = EPHA6 (Homo sapiens, UniProt Q9UF33)
Description: as §1

ACVR1 = ACVR1 (Homo sapiens, UniProt Q04771)
Description: as §1

PIK3CA(H1047Y) = PIK3CA(H1047Y) (Homo sapiens, UniProt P42336, H1047Y)
Description: as §1

Sequence of PRKX (P51817 whole entry): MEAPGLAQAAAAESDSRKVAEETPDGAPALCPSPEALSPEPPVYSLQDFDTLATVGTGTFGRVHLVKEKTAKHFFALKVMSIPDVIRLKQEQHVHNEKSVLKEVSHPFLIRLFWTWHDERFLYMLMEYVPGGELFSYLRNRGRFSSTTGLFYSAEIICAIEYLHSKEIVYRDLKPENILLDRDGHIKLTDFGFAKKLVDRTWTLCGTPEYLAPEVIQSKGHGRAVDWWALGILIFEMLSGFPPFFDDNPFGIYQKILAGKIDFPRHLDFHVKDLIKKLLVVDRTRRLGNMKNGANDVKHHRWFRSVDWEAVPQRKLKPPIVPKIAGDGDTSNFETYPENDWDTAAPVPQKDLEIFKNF

CNS(=O)(=O)c1ccc(N(C)C)c(Nc2ncnc3cc(OC)c(OC)cc23)c1 [compound 7, 3-((6,7-dimethoxyquinazolin-4-yl)amino)-4-(dimethylamino)-N-methylbenzenesulfonamide]
inhibition at 1 µM (PRKX): 0%
inhibition at 1 µM (PKMYT1): 0%
inhibition at 1 µM (CASK): 0%
inhibition at 1 µM (PDPK1): 0%
inhibition at 1 µM (CIT): 0%
inhibition at 1 µM (MAP3K15): 4%
inhibition at 1 µM (LATS2): 0%
inhibition at 1 µM (TGFBR1): 0%
inhibition at 1 µM (MAP3K4): 0%
inhibition at 1 µM (RIOK1): 0%
inhibition at 1 µM (KIT(A829P)): 61%
inhibition at 1 µM (PFTAIRE2): 0%
inhibition at 1 µM [1]: 20%
inhibition at 1 µM (LCK): 63%
inhibition at 1 µM [2]: 9%
inhibition at 1 µM (MAK): 0%
inhibition at 1 µM (NEK3): 0%
inhibition at 1 µM (ADCK3): 50%
inhibition at 1 µM (ACVR2A): 0%
inhibition at 1 µM (DYRK1A): 0%
inhibition at 1 µM (VEGFR2): 26%
inhibition at 1 µM (EPHA6): 0%
inhibition at 1 µM (ACVR1): 0%
inhibition at 1 µM (PIK3CA(H1047Y)): 17%
